Measurements as given in patent US11155539B2, “4-pyridinylmethyl-morpholine derivatives and the use thereof as medicament” (Boehringer Ingelheim International GmbH, priority 2018, dated 2021).

Key:
Nav1.6 = Nav1.6 (Homo sapiens, UniProt Q9UQD0); test: Nav 1.6 inhibition, IonWorks Quattro electrophysiology; assay type: cell-based; settings: for inhibition at 1 µM / inhibition at 5 µM: normalized to vehicle control (0%) and maximal inhibition control (100%)
Experimental: Determination of Nav 1.6.Inhibition
IonWorks Quattro electrophysiological platform
The compounds were prepared in DMSO at 300× the final assay concentrations of 1 and 5 μM.
The 300×DMSO stock solutions were transferred into assay plates where 2 μl per well of each 300× stock solution were placed. All assay plates were stored at −80° C. until the day of assay.
On the day of the assay, the appropriate assay plate was thawed at room temperature, centrifuged, and 198 μl of external recording solution was added and mixed thoroughly. This provided a 1:100 dilution. A further 1:3 dilution occurred upon addition to the cells in the IonWorks Quattro electrophysiological platform, giving a 1:300 dilution in total. On each assay plate, at least 8 wells were reserved for vehicle control (0.3% DMSO) and at least 8 wells for each positive control specific to the cell line tested. The positive controls were tested at a maximal blocking and an approximate IC50 concentration. As positive control Lidocaine at concentrations of 30 and 1000 μM was used.
The solutions for recording Nav1.6 currents were as follows:
Amphotericin B was used to obtain electrical access to the cell interior at a final concentration of 200 μg/ml in internal recording solution.
State-dependent inhibition: Sodium channels when held at depolarized potential or long test pulse, the channels open and inactivate and then stay inactivated until the membrane potential is stepped back to hyperpolarized potentials, when the inactivated channels recover from inactivation into closed state.
Cells were held at −120 mV. In order to completely inactivate the sodium channels (pulse 1), the cells were pulsed to +0 mV for 2500 ms and stepped back to −120 mV for 10 ms (to completely recover from inactivation, however channels that had drugs bound to them will not recover from inactivation) before stepping to +0 mV for 20 ms (pulse 2).
Both the positive and vehicle control data associated with each cell line assayed are shown below as an example. The mean is shown for each positive and negative control as solid symbol with the total number of individual well replicates given next to the solid symbol. In addition, the individual data of each well are shown on the graph as open symbols so that the variation about the mean value can be readily assessed.
Shown below are the assay controls for the Nav1.6 IonWorks Quattro assay.
Tables 3 and 4 show the normalized percentage inhibition of Nav1.6 channel. […] (see also the figure Assay Control Results above).

MDR1 (P-gp) = target: T1, MDR1 (P-gp) (Homo sapiens, UniProt P08183); test: MDCK assay P-gp (permeability across MDCK-MDR1 monolayers); assay type: in vitro ADME; settings: for Papp A→B at 2 h: apical-to-basal, MDCK-MDR1 monolayers, pH 7.4; for efflux ratio at 2 h: pH 7.4, Papp (b-a) divided by Papp (a-b), MDCK-MDR1, read-out: efflux ratio PEBA/PEAB
T1 construct: expressed in transfected cells; host or cells: MDCKII (Madin-Darby canine kidney)
Experimental: The MDCK assays provide information on the potential of a compound to pass the blood brain barrier. Permeability measurements across polarized, confluent MDCK-MDR1 cell monolayers grown on permeable filter supports are used as an in vitro absorption model: apparent permeability coefficients (PE) of the compounds across the MDCK-MDR1 cell monolayers are measured (pH 7.4, 37° C.) in apical-to-basal (AB) and basal-to-apical (BA) transport direction. The AB permeability (PEAB) represents drug absorption from the blood into the brain and the BA permeability (PEBA) drug efflux from the brain back into the blood via both, passive permeability as well as active transport mechanisms mediated by efflux and uptake transporters that are expressed on the MDCK-MDR1 cells, predominantly by the overexpressed human MDR1. Identical or similar permeabilities in both transport directions indicate passive permeation (PEBA/PEAB≤1), vectorial permeability points to additional active transport mechanisms. Higher PEBA than PEAB (PEBA/PEAB>5) indicates the involvement of active efflux mediated by MDR1, which might compromise the goal to achieve sufficient brain exposure. Therefore, this assay provides valuable support for selection of compounds applicable for further in vivo testing. High permeability not limited by efflux at the blood brain barrier is a favorable characteristic for compounds that are to be used for drugs acting primarily in the CNS.
Apparent permeability coefficients (Papp) of the compounds across the MDCK-MDR1 monolayers (MDCKII cells transfected with human MDR1 cDNA expression plasmid) are measured in apical-to-basal (AB) and basal-to-apical (BA) direction. MDCK-MDR1 cells (6×10^5 cells/cm^2) are seeded on filter inserts (Corning, Transwell, polycarbonate, 0.4 μm pore size) and cultured for 9 to 10 days. Compounds dissolved in DMSO stock solution (1-20 mM) are diluted with HTP-4 aqueous buffer (128.13 mM NaCl, 5.36 mM KCl, 1 mM MgSO4, 1.8 mM CaCl2, 4.17 mM NaHCO3, 1.19 mM Na2HPO4, 0.41 mM NaH2PO4, 15 mM HEPES, 20 mM glucose, pH 7.4) supplemented with 0.25% BSA to prepare the transport solutions (final concentration: 1 or 10 μM, final DMSO<=0.5%). The transport solution is applied to the apical or basolateral donor side for measuring A-B or B-A permeability, respectively. The receiver side contains HTP-4 buffer supplemented with 0.25% BSA. Samples are collected at the start and end of experiment from the donor and at various time intervals for up to 2 hours also from the receiver side for concentration measurement by HPLC-MS/MS (RapidFire High-throughput MS System (Agilent) coupled to QTrap 6500 (AB Sciex) or TSQ Vantage (Thermo Scientific)). Sampled receiver volumes are replaced with fresh receiver solution. Efflux ratio is calculated dividing the Papp (b-a) values by the Papp (a-b) values.

[1] = Metabolic stability in pooled human liver microsomes; assay type: in vitro ADME; settings: pH 7.6, 1 μM compound, 37° C., NADPH, read-out: Half-life - t½ human liver microsomes
Excerpt: Stability in human liver microsomes refers to the susceptibility of compounds to biotransformation in the context of selecting and/or designing drugs with favorable pharmacokinetic properties. The primary site of metabolism for many drugs is the liver. Human liver microsomes contain the cytochrome P450s (CYPs), and thus represent a model system for studying drug metabolism in vitro Enhanced stability in human liver microsomes is associated with several advantages, including increased bioavailability and adequate half-life, which can enable lower and less frequent dosing of patients. Thus, enhanced stability in human liver microsomes is a favorable characteristic for compounds that are to be used for drugs.
The metabolic degradation of the test compound was assayed at 37° C. with pooled human liver microsomes. The final incubation volume of 60 μl per time point contains TRIS buffer pH 7.6 at room temperature (0.1 M), magnesium chloride (5 mM aqueous solution), microsomal protein (1 mg/mL for human) and the test compound at a final concentration of 1 μM. Following a short preincubation period at 37° C., the reactions were initiated by addition of betanicotinamide adenine dinucleotide phosphate, reduced form (NADPH, 1 mM), and terminated by transferring an aliquot into acetonitril after different time points. After centrifugation (10000 g, 5 min), an aliquot of the supernatant was assayed by HPLC-MS/MS as described above for the MDCK assay P-gp for the amount of parent compound. The half-life was determined by the slope of the semi-logarithmic plot of the concentration-time profile.

NMDA NR1/NR2B receptor [2] = target: T2, NMDA NR1/NR2B receptor (Homo sapiens, UniProt Q05586+Q13224); test: In vitro NMDA NR1/NR2B cell assay (FLIPR, intracellular calcium induced by glycine/glutamate); assay type: cell-based; settings: HEK293 cells expressing NMDA NR1/NR2B; 20 μM glycine, 1 μM glutamate; read-out: IC50 (in vitro NR2B affinity, FLIPR assay)
T2 construct: host or cells: HEK293, tetracycline-inducible expression
Experimental: (§1) A human HEK293 cell line with tetracyclin-inducible expression of NMDA NR1/NR2B receptor was used as a test system for compound efficacy and potency. The cell line was purchased from ChanTest, Catalog #CT6121. Compound activity was determined by measuring the effect of compounds on intracellular calcium concentration induced by glycine/glutamate agonism in a FLIPRtetra system (Molecular Devices).
(§2) The cells were obtained as frozen cells in cryo-vials and stored until use at −150° C. Cells were grown in culture medium (DMEM/F12, 10% FBS, 5 μg/mL Blasticidin, 150 μg/mL Zeozin, 500 μg/mL Geneticin). […] For sub-culturing the cells were detached from flasks by Versene. For the assay, cells were detached, washed twice with induction medium (DMEM/F12 without glutamine, 10% FBS, 2 μg/mL Tetracycline, 2 mM Ketamine) and seeded to 384 well pure coat amine plates (Becton Dickinson, 50000 cells per well in 50 μl) 48 h prior to assay in induction medium.
(§3) The test compounds were dissolved in 100% DMSO at a concentration of 10 mM and in a first step diluted in DMSO to a concentration of 5 mM, followed by serial dilution steps in 100% DMSO. Dilution factor and number of dilution steps may vary according to needs. Typically 8 different concentrations by 1:5 dilutions were prepared in duplicate, further intermediate dilutions (1:37.5) of the substances were carried out with aqueous assay buffer (137 mM NaCl, 4 mM KCl, 1.8 mM CaCl2, 10 mM HEPES, 10 mM Glucose, pH 7.4) resulting in a compound concentration 3 times above the final test concentration and DMSO at 2.7% resulting in 0.9% final DMSO concentration in the assay.
(§4) At the assay day cells were washed 3× with assay buffer (as described above), 10 μL buffer remained in the wells after washing. 10 μL Ca kit loading buffer (AAT Bioquest; prepared from the kit containing the following components: Component A: Fluo-8 NW dissolved in 200 μL DMSO and 20 μl of this solution are mixed with 10 ml buffer prepared out of component B and C, Component B: 10× Pluronic® F127 Plus diluted 1:10 in component C, Component C: HHBS (Hanks with 20 mM Hepes) was added to the cells and the plates were incubated with lid for 60 minutes at room temperature. 20 μl assay buffer containing 60 μM glycine (20 μM final) and 3 μM glutamate (1 μM final) was added to column 1-23, column 24 got assay buffer without glycine/glutamate to serve as negative unstimulated control. Fluorescence (indicating the calcium influx as a result of the NR1/NR2B ion channel activation) was read on the FLIPRtetra device for 60 seconds to monitor the glutamate induced effects. After 2 minutes 20 μL of compound dilution prepared as described above or controls (row 1-22) in assay buffer were carefully added to the wells. […] The average of 2 measurements at 5 minutes and […] 10 seconds after compound addition is calculated and further used for IC50 calculations. Each assay microtiter compound dilution plate contained wells (in column 23 or 24) with DMSO controls instead of compound as controls for glycine/glutamate induced fluorescence (high controls) and wells with 1 μM of a reference NR2B NAM as low controls (Compound 22; reference: Layton, Mark E et al, ACS Chemical Neuroscience 2011, 2(7), 352-362).
(§5) The output file of the reader contains the well number and measured average fluorescence units. For data evaluation and calculation, the measurement of the low control was set as 0% control and the measurement of the high control was set as 100% control. The IC50 values were calculated using the standard 4 parameter logistic regression formula. Calculation: [y=(a−d)/(1+(x/c)^b)+d], a=low value, d=high value; x=conc M; c=IC50 M; b=slope.

NMDA NR1/NR2B receptor [3] = target: T3, NMDA NR1/NR2B receptor (Homo sapiens, UniProt Q13224); test: as above; assay type: cell-based; settings: see Table 2
T3 construct: host or cells: HEK293, tetracycline-inducible expression
Experimental: as §1, §2, §3, §4, §5

T1 sequence (P08183 whole entry): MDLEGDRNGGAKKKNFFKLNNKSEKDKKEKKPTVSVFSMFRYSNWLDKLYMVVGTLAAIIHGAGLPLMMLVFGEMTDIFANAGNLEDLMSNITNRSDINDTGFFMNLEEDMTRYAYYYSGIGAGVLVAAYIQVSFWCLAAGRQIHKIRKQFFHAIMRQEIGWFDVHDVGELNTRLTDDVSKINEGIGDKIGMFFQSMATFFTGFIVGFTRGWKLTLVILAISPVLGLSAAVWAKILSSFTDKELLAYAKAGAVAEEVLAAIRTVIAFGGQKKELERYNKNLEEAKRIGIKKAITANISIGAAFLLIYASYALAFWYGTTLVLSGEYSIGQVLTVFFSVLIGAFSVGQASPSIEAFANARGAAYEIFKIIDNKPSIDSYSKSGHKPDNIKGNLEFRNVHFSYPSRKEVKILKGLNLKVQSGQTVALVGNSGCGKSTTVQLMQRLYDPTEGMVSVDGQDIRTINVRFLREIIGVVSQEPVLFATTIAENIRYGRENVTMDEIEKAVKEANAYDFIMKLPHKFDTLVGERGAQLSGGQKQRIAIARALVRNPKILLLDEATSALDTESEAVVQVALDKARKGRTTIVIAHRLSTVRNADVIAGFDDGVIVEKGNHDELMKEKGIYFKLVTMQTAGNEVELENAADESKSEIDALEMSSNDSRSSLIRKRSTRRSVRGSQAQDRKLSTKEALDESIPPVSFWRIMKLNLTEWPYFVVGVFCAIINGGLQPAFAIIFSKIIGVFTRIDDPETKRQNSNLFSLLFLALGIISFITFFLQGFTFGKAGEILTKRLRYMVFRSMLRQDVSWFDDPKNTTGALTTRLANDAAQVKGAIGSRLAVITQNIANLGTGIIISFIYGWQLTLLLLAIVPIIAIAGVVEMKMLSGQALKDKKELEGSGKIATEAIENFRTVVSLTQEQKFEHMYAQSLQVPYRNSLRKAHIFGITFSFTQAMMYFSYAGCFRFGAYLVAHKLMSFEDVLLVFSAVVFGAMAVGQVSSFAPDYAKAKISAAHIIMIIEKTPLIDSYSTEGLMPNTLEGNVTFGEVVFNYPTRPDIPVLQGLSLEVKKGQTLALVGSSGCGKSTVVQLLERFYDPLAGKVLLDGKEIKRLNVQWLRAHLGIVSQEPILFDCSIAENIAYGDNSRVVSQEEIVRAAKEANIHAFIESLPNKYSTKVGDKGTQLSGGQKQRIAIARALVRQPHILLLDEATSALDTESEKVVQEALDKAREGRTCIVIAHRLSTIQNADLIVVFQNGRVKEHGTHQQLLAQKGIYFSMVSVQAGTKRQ
Sequence of Nav1.6 (Q9UQD0 whole entry): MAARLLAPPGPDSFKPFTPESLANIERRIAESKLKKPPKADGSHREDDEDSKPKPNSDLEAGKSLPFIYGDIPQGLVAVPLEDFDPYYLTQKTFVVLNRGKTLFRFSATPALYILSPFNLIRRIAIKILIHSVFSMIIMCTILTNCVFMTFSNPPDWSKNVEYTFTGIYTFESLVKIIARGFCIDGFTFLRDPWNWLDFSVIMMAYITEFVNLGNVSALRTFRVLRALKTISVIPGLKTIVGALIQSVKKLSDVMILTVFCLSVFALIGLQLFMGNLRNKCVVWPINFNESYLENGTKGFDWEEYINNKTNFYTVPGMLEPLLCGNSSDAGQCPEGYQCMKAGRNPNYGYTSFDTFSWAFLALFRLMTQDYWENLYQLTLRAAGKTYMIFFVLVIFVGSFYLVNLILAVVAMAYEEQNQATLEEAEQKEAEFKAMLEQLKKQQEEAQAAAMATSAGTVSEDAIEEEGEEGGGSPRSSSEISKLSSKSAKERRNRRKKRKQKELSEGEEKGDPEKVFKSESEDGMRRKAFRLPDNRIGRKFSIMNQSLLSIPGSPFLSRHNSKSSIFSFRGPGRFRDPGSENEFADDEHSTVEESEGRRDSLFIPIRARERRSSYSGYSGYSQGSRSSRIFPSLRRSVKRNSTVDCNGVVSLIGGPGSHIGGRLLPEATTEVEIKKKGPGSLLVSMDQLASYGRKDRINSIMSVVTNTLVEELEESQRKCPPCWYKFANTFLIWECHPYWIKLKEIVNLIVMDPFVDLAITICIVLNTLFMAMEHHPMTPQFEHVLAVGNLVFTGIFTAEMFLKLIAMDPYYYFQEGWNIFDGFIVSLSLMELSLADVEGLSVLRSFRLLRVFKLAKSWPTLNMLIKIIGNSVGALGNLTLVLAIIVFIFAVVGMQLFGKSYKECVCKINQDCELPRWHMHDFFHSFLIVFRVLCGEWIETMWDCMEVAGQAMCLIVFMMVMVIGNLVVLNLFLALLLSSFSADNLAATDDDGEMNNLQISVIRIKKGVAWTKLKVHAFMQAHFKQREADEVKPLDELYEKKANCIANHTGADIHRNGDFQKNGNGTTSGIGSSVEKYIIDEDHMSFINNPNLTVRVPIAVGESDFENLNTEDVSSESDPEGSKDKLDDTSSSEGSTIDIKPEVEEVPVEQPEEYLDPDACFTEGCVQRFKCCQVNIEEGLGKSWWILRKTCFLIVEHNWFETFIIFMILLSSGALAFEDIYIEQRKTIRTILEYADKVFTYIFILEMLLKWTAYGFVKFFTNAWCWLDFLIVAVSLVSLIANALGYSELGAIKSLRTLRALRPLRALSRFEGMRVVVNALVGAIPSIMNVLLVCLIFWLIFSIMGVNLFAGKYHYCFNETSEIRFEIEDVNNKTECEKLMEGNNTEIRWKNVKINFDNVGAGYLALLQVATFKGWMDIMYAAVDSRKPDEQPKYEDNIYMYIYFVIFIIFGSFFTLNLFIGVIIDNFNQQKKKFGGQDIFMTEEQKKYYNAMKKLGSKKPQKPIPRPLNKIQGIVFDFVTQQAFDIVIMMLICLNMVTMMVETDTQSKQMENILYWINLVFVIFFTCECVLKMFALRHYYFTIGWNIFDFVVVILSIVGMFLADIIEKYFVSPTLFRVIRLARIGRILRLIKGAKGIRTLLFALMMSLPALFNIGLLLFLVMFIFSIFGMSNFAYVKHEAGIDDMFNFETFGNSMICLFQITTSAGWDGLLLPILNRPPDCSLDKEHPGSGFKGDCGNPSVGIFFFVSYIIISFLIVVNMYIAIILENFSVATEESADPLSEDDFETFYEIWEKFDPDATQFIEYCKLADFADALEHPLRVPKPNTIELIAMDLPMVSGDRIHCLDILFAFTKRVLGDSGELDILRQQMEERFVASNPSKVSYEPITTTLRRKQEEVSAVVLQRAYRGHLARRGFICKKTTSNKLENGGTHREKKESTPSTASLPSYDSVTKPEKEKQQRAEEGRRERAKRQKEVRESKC
T3 sequence (Q13224 27-1484, other chains not shown): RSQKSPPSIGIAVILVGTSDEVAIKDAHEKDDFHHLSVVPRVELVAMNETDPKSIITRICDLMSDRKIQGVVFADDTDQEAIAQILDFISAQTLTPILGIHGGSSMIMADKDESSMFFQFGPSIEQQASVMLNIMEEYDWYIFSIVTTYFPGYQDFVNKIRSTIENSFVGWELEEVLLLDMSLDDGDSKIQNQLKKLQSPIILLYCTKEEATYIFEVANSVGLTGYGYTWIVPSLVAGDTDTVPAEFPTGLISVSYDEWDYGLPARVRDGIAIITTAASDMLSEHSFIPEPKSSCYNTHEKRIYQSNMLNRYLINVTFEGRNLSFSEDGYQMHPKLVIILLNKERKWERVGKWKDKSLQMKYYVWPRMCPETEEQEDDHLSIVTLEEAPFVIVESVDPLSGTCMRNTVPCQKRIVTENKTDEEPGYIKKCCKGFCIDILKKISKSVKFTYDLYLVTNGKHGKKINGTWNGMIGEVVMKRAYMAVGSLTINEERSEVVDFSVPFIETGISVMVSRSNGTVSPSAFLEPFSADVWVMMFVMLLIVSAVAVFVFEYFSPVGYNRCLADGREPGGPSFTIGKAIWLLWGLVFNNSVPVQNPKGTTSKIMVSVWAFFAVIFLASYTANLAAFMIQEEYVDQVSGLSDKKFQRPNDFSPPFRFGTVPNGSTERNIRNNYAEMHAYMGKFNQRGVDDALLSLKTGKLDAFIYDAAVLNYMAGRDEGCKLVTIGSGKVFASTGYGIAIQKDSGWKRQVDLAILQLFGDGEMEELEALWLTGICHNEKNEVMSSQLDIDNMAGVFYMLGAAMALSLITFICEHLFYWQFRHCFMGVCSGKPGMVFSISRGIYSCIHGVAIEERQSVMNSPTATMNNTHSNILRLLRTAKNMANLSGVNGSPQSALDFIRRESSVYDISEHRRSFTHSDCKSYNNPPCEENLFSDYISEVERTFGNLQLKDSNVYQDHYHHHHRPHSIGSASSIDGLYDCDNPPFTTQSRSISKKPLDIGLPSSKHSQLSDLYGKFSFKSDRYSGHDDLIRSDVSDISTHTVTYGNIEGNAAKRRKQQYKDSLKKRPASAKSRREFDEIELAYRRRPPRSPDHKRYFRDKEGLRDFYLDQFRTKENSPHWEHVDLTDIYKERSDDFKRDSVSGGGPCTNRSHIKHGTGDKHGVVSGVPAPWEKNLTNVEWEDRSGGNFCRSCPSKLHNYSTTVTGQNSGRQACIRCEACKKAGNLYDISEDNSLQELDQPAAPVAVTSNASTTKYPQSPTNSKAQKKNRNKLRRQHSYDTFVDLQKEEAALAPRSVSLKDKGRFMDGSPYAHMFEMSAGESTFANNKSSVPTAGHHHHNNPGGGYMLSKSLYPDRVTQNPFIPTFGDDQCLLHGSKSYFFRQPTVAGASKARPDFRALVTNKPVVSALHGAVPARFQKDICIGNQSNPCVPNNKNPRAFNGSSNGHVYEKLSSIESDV

CNC(=O)C1CN(Cc2ccc(Oc3ccc(F)cc3)nc2)CCO1 (centres unmarked) [Example 14]
inhibition at 1 µM (Nav1.6): 0.7%
inhibition at 5 µM (Nav1.6): 0.4%
Papp A→B at 2 h (MDR1 (P-gp)): 92 ×10⁻⁶ cm/s
efflux ratio at 2 h (MDR1 (P-gp)): 0.4
half-life at 1 μM [1]: > 2.17 h

CNC(=O)C1CN(Cc2ccc(Oc3ccc(Cl)cc3F)nc2)CCO1 (centres unmarked) [Example 15]
inhibition at 1 µM (Nav1.6): -17.4%
inhibition at 5 µM (Nav1.6): -1.4%
Papp A→B at 2 h (MDR1 (P-gp)): 42 ×10⁻⁶ cm/s
efflux ratio at 2 h (MDR1 (P-gp)): 0.7
half-life at 1 μM [1]: > 2.17 h

CNC(=O)C1CN(Cc2ccc(Oc3ccc(Cl)cc3)nc2)CCO1 (centres unmarked) [Example 16]
inhibition at 1 µM (Nav1.6): -0.5%
inhibition at 5 µM (Nav1.6): 7.1%
Papp A→B at 2 h (MDR1 (P-gp)): 51 ×10⁻⁶ cm/s
efflux ratio at 2 h (MDR1 (P-gp)): 0.7
half-life at 1 μM [1]: > 2.17 h

CNC(=O)[C@@H]1CN(Cc2ccc(Oc3ccc(F)cc3F)cn2)CCO1 [Example 31]
IC50 (NMDA NR1/NR2B receptor [2]): 275 nM
Papp A→B at 2 h (MDR1 (P-gp)): 63 ×10⁻⁶ cm/s
efflux ratio at 2 h (MDR1 (P-gp)): 0.7
half-life at 1 μM [1]: > 2.17 h

CNC(=O)[C@@H]1CN(Cc2ccc(Oc3ccc(Cl)cc3F)cn2)CCO1 [Example 32]
IC50 (NMDA NR1/NR2B receptor [2]): 255 nM
Papp A→B at 2 h (MDR1 (P-gp)): 80 ×10⁻⁶ cm/s
efflux ratio at 2 h (MDR1 (P-gp)): 0.5
half-life at 1 μM [1]: > 2.17 h

CNC(=O)[C@@H]1CN(Cc2ccc(Oc3ccccc3F)cn2)CCO1 [Example 33]
IC50 (NMDA NR1/NR2B receptor [2]): 366 nM
Papp A→B at 2 h (MDR1 (P-gp)): 71 ×10⁻⁶ cm/s
efflux ratio at 2 h (MDR1 (P-gp)): 0.5
half-life at 1 μM [1]: > 2.17 h

CNC(=O)[C@@H]1CN(Cc2ccc(Oc3ccc(C)cc3F)cn2)CCO1 [Example 34]
IC50 (NMDA NR1/NR2B receptor [2]): 133 nM
Papp A→B at 2 h (MDR1 (P-gp)): 58 ×10⁻⁶ cm/s
efflux ratio at 2 h (MDR1 (P-gp)): 0.8
half-life at 1 μM [1]: > 2.17 h

CCNC(=O)C1CN(Cc2cccc(Oc3ccccc3)c2)CCO1 (centres unmarked) [Example 100 of WO2015/130905, reference compound]
activity on the NR1-NR2B ion channel (in words) (NMDA NR1/NR2B receptor [3]): do not show any activity

O=C(NCc1ccccn1)C1CN(Cc2cccc(Oc3ccccc3)c2)CCO1 (centres unmarked) [Example 105 of WO2015/130905, reference compound]
activity on the NR1-NR2B ion channel (in words) (NMDA NR1/NR2B receptor [3]): do not show any activity

COCCNC(=O)C1CN(Cc2cccc(Oc3ccccc3)c2)CCO1 (centres unmarked) [Example 107 of WO2015/130905, reference compound]
IC50 (NMDA NR1/NR2B receptor [2]): > 9260 nM
activity on the NR1-NR2B ion channel (in words) (NMDA NR1/NR2B receptor [3]): do not show any activity
inhibition at 1 µM (Nav1.6): -8.5%
inhibition at 5 µM (Nav1.6): 13.1%
significant inhibition of the Nav 1.6 channel (in words) (Nav1.6; at 1 and 5 μM): do not show any significant inhibition
